Results on 21 compounds are retold here after ChEMBL document CHEMBL4219072, “Enhancing the anti-biofilm activity of 5-aryl-2-aminoimidazoles through nature inspired dimerisation” (Bioorg Med Chem, 2018).

The subject of test [1] is Escherichia coli. The experiment in a line: Inhibition of planktonic growth of Escherichia coli TG1 after 24 hrs. Format: organism-based. As to conditions: TG1, 24 h.
Test [2] concerns Escherichia coli. The experiment in a line: Antibiofilm activity against Escherichia coli TG1 after 24 hrs by crystal violet staining based assay. Type of test: functional, organism-based. The note with it: TG1, 24 h.
Test [3] concerns Salmonella typhimurium. Kind of test: Inhibition of planktonic growth of Salmonella typhimurium ATCC 14028 after 24 hrs. The note with it: Salmonella enterica, ATCC 14028, 24 h. Type of test: organism-based, Salmonella enterica subsp. enterica serovar Typhimurium.
Test [4] has as its system Staphylococcus aureus. The experiment in a line: Antibiofilm activity against Staphylococcus aureus SH1000 after 48 hrs by crystal violet staining based assay. The note with it: SH1000, 48 h. Format: functional, organism-based.
In test [5] the test system is Pseudomonas aeruginosa. Kind of test: Antibiofilm activity against Pseudomonas aeruginosa PA14 after 24 hrs by crystal violet staining based assay. Format: functional, organism-based. The note with it: PA14, 24 h.
The test system of test [6] is Salmonella typhimurium. The experiment in a line: Antibiofilm activity against Salmonella typhimurium ATCC 14028 after 24 hrs by crystal violet staining based assay. Format: functional, organism-based, Salmonella enterica subsp. enterica serovar Typhimurium. The note with it: Salmonella enterica, ATCC 14028, 24 h.
For test [7], the system named is Staphylococcus aureus. Kind of test: Inhibition of planktonic growth of Staphylococcus aureus SH1000 after 48 hrs. Type of test: organism-based. The note with it: SH1000, 48 h.

Where only a bound is given, the exact number is not on record here.

For orientation: IC50 means the point on the concentration scale where inhibition reaches its midpoint. As for `Fc1ccc(-c2cnc(NCCCCNc3ncc(-c4ccc(F)cc4)[nH]3)[nH]2)cc1`, the IC50 in test [1] came out at 4.55 µM; in test [2] it was 6.5 µM; in test [3], 46 µM; in test [4], 40.6 µM; in test [5], 5.6 µM; in test [6], 5.9 µM. In test [7], this compound showed an IC50 of 144 µM.
For `Brc1ccc(-c2cnc(NCCCCCCCNc3ncc(-c4ccc(Br)cc4)[nH]3)[nH]2)cc1`, the IC50 in test [1] was 122 µM; in test [2], 19.1 µM; in test [3] it was over 800 µM; in test [4] it was 300 µM; in test [5], 252 µM; in test [6] it was 50.4 µM. This compound had a half-maximal inhibitory concentration (IC50) in test [7] of 217 µM.
`Clc1ccc(-c2cnc(NCCCCNc3ncc(-c4ccc(Cl)cc4)[nH]3)[nH]2)cc1`: the IC50 stood at 31.6 µM in test [1]; 9.3 µM in test [2]; 41.6 µM in test [3]; 200 µM in test [4]; 13 µM in test [5]; 12.3 µM in test [6]. In addition, the IC50 in test [7] was found to be 158 µM.
As to `Clc1ccc(-c2cnc(NCCCCCCNc3ncc(-c4ccc(Cl)cc4)[nH]3)[nH]2)cc1`, the IC50 stood at 96.6 µM in test [1]; 24.8 µM in test [2]; 529 µM in test [3]; 150 µM in test [4]; 80.4 µM in test [5]; 30.5 µM in test [6]. The same compound showed an IC50 in test [7] of 327 µM.
Consider `c1ccc(-c2cnc(NCCCCNc3ncc(-c4ccccc4)[nH]3)[nH]2)cc1`, for which the IC50 was found to be 6.81 µM in test [1]; 12.3 µM in test [2]; 49.4 µM in test [3]; 28.6 µM in test [4]; 5.9 µM in test [5]; 7.7 µM in test [6]. The same compound yielded an IC50 in test [7] of 301 µM.
Consider `Brc1ccc(-c2cnc(NCCCCNc3ncc(-c4ccc(Br)cc4)[nH]3)[nH]2)cc1`, for which the IC50 in test [1] was over 100 µM; in test [2], 7.2 µM; in test [3] it was over 800 µM; in test [4], 300 µM; in test [5], 11.2 µM; in test [6], 13.2 µM. In test [7], the midpoint of inhibition, the IC50, lay at 145 µM.
For the compound `Fc1ccc(-c2cnc(NCCCCCCCCNc3ncc(-c4ccc(F)cc4)[nH]3)[nH]2)cc1`, the IC50 was 47.6 µM in test [1]; 31.5 µM in test [2]; over 800 µM in test [3]; 372 µM in test [4]; 15.2 µM in test [5]; 11.6 µM in test [6]. Besides, the IC50 in test [7] came to 250 µM.
With `Brc1ccc(-c2cnc(NCCCCCCCCNc3ncc(-c4ccc(Br)cc4)[nH]3)[nH]2)cc1`, the IC50 in test [1] is 136 µM; in test [2], 90.6 µM; in test [3], over 800 µM; in test [4] it was 68.1 µM; in test [5] it was 893 µM; in test [6], 31.3 µM. In test [7], this compound displayed an IC50 of 69.3 µM.
`Brc1ccc(-c2cnc(NCCCCCNc3ncc(-c4ccc(Br)cc4)[nH]3)[nH]2)cc1`: the IC50 is 22.4 µM in test [1]; 10.5 µM in test [2]; 35.9 µM in test [3]; 12 µM in test [4]; 13.4 µM in test [5]; 6.5 µM in test [6]. The compound further yielded an IC50 in test [7] of 26.4 µM.
For `c1ccc(-c2cnc(NCCCNc3ncc(-c4ccccc4)[nH]3)[nH]2)cc1`, the IC50 in test [1] was 2.82 µM; in test [2] it was 4.1 µM; in test [3], 75.9 µM; in test [4], 300 µM; in test [5], 2.8 µM; in test [6], 5.7 µM. The compound further gave an IC50 in test [7] of 292 µM.
`Brc1ccc(-c2cnc(NCCCNc3ncc(-c4ccc(Br)cc4)[nH]3)[nH]2)cc1`: the IC50 stood at 4.77 µM in test [1]; 4.1 µM in test [2]; 11.9 µM in test [3]; 24.2 µM in test [4]; 11.2 µM in test [5]; 5.5 µM in test [6]. In test [7], this compound showed an IC50 of 29.2 µM.
On to `Fc1ccc(-c2cnc(NCCCCCCCNc3ncc(-c4ccc(F)cc4)[nH]3)[nH]2)cc1`, for which the IC50 in test [1] was 7.48 µM; in test [2], 10 µM; in test [3] it was 86.1 µM; in test [4] it was 107 µM; in test [5] it was 7.5 µM; in test [6], 10.4 µM. In test [7], the IC50 turned out to be 121 µM.
For `Brc1ccc(-c2cnc(NCCCCCCNc3ncc(-c4ccc(Br)cc4)[nH]3)[nH]2)cc1`, the IC50 in test [1] was 6.43 µM; in test [2], 8.3 µM; in test [3], over 800 µM; in test [4] it was 53.3 µM; in test [5], 8.8 µM; in test [6] it was 15.7 µM. The compound further had an IC50 in test [7] of 93.8 µM.
For the compound `Fc1ccc(-c2cnc(NCCCCCCNc3ncc(-c4ccc(F)cc4)[nH]3)[nH]2)cc1`, the IC50 in test [1] was determined as 5.52 µM; in test [2] it was 5.4 µM; in test [3], 23.8 µM; in test [4], 8.9 µM; in test [5], 10.1 µM; in test [6], 10.3 µM. Moreover, the IC50 in test [7] amounted to 28.7 µM.
In the case of `c1ccc(-c2cnc(NCCCCCNc3ncc(-c4ccccc4)[nH]3)[nH]2)cc1`, the IC50 in test [1] stood at 19.9 µM; in test [2] it was 5.2 µM; in test [3], 59.6 µM; in test [4] it was 180 µM; in test [5], 1.2 µM; in test [6], 4.6 µM. Further, the IC50 in test [7] amounted to 108 µM.
Take `Fc1ccc(-c2cnc(NCCCCCNc3ncc(-c4ccc(F)cc4)[nH]3)[nH]2)cc1`: the IC50 in test [1] came to 16.4 µM; in test [2], 7 µM; in test [3], 85.4 µM; in test [4], 150 µM; in test [5], 1.7 µM; in test [6], 7.6 µM. For the same compound, half-maximal inhibition in test [7] (IC50) required 105 µM.
Consider `Clc1ccc(-c2cnc(NCCCCCCCNc3ncc(-c4ccc(Cl)cc4)[nH]3)[nH]2)cc1`, for which the IC50 in test [1] is 29.8 µM; in test [2] it was 35 µM; in test [3], over 800 µM; in test [4] it was 150 µM; in test [5], 120 µM; in test [6] it was 23 µM. Further, 141 µM corresponded to half-maximal inhibition in test [7] (IC50).
`Fc1ccc(-c2cnc(NCCCNc3ncc(-c4ccc(F)cc4)[nH]3)[nH]2)cc1`: the IC50 was 16.2 µM in test [1]; 4.8 µM in test [2]; 59.2 µM in test [3]; 50 µM in test [4]; 5.7 µM in test [5]; 6.3 µM in test [6]. Further, the midpoint of inhibition in test [7], the IC50, lay at 60.1 µM.
Take `Clc1ccc(-c2cnc(NCCCNc3ncc(-c4ccc(Cl)cc4)[nH]3)[nH]2)cc1`: the IC50 came to 14.7 µM in test [1]; 4.9 µM in test [2]; 11.4 µM in test [3]; 13 µM in test [4]; 5.6 µM in test [5]; 2.7 µM in test [6]. In addition, in test [7], half-maximal inhibition (IC50) required 23.5 µM.
Consider `Clc1ccc(-c2cnc(NCCCCCNc3ncc(-c4ccc(Cl)cc4)[nH]3)[nH]2)cc1`, for which the IC50 was found to be 224 µM in test [1]; 12 µM in test [2]; 15.2 µM in test [3]; 94.4 µM in test [4]; 6 µM in test [5]; 3.8 µM in test [6]. The same compound came in with an IC50 in test [7] of 90.2 µM.
As to `Clc1ccc(-c2cnc(NCCCCCCCCNc3ncc(-c4ccc(Cl)cc4)[nH]3)[nH]2)cc1`, the IC50 was determined as 44 µM in test [1]; 42.7 µM in test [2]; 47.8 µM in test [3]; 300 µM in test [4]; 31.6 µM in test [5]; 8.3 µM in test [6]. The IC50 in test [7] was 121 µM.
